Data as given in US20130023553A1, “PEGYLATED OPIOIDS WITH LOW POTENTIAL FOR ABUSE AND SIDE EFFECTS” (Nektar Therapeutics, priority 2010, published 2013).
Entries after “also recorded” stand apart in the source; their conditions may differ.

Columns and labels:
Sprague-Dawley rats = assay: Abuse liability: progressive ratio test in rats trained to self-administer cocaine; assay type: in vivo; conditions: for reinforcing behavior, progressive ratio: all doses tested
Experimental: In the three-day rat substitution tests, rats trained to self-administer cocaine were exposed to saline or test article via intravenous bolus infusions for one hour sessions on three consecutive days.
The rate of self-administration is determined not only by reinforcing effects of drug but also by the direct effects of the drug on motor behavior. To measure reinforcing effects in a quantitative way, a procedure was utilized in which responding was determined by reinforcing effects uncontaminated with other drug effects. […] See, e.g., Griffiths R R, Brady J V, Bradford L D. Advances in Behavioral Pharmacology (Vol 2).
Under this schedule, the animal responds on the lever for delivery of test article. For each subsequent drug delivery the total number of responses emitted on the lever required for drug delivery was incremented upward using a logarithmic (base e) scale using the following equation:
Response requirement=5*e^(response increment*0.2)−5
The progressive “break point” is defined as the highest number of responses emitted by the animal to earn a single reinforcer delivery of drug or vehicle. This break point is used as a behavioral marker of how much work will be expended by an experimental subject to earn a single reinforcer delivery. The amount of work expended to earn a single reinforcer is used to compare the efficacy of drug deliveries with respect to the hedonic valence induced by the drug injection with the assumption that the subjective hedonic valence of a reinforcer determines its abuse liability.

squirrel monkeys = assay: Monkey self-administration model of addictive potential
[1] = Pharmacokinetics following intravenous (IV) dosing; assay type: in vivo, Sprague-Dawley rats; conditions: male, Sprague-Dawley, rat, plasma, hydroxycodone series, 1 mg/kg IV, Mean ± SD
Source text: There were 3 rats/group. All animals were food fasted overnight. […] The predose sample was collected from the JVC.
Following the last collection point, the animals were euthanized.

mice = assay: Oral dose giving maximal analgesia; assay type: in vivo
human mu opioid receptor = target: T1, human mu opioid receptor (Homo sapiens, UniProt P35372); assay: biochemical; assay type: binding; conditions: CHO-K1 membranes, [3H]DAMGO 6 nM; read-out: Ki, Mu opioid receptor
T1 construct: expressed in transfected cells; host or cells: CHO cells

male (CD1) mice = assay: Respiratory depression, whole body plethysmography with CO2 challenge; conditions: equianalgesic doses (100 mg/kg vs oxycodone 30 mg/kg, gavage)
Experimental: The animals were housed in SPF conditions. The animal housing facilities were maintained at 72°+/−2° F. with a light cycle of 12:12 hours (light:dark). Autoclaved rodent chow and water are provided ad libitum.
Approximate measurements of minute ventilation were carried out using Buxco unrestrained whole body plethysmographs (WBP). Digital computer aided analysis of the analog signal was used to report measurements of tidal volume, frequency of breathing, minute ventilation, inspiratory and expiratory times and flows as well as other derived measurements.
To more clearly delineate the effect of these test articles on respiratory depression, a hypercapnic ventilatory stimulus (CO2) was added to the animals' breathing air supply to stimulate ventilation.
Mice received the drug by gavage and then were placed in the WBP. […] The mouse remained in that atmosphere for 10 minutes, after which time the chamber was flushed with zero grade air for another 20 min to allow ventilation to return to baseline. The mouse was challenged again with 8% CO2 for 10 minutes. […] The last 2 minutes of each of the two conditions (Air or 8% CO2) was recorded and analyzed for the following respiratory parameters: minute ventilation, respiratory frequency, tidal volume, and time of inspiration/expiration for animals in each dose group.

Male CD-1 mice = assay: Assessment of CNS side effects in mice (Straub tail, muscle rigidity, pinna reflex)
Source text: The objective of this study was to provide an approximation of the side effect profile of various oligomeric conjugates for comparison to the parent compounds by measuring various gross behavioral and physiological signs following administration of compound.
Additional evaluations included muscle rigidity and pinna reflex.
Male CD-1 mice from Charles River Laboratories, Raleigh, N.C., weighing from 16-18 grams were maintained on a regular light/dark cycle (lights on 0600-1800) with ad libitum food and water for 1 week before commencement of testing. N=2 per treatment condition, i.e., separate mice for each dose of each test article, injection was performed via a 25-gauge ⅝-inch needle on a 1-mL tuberculin syringe for the s.c. route and a 22-gauge stainless steel mouse feeding tube for the p.o. route (Becton, Dickinson & Co., Franklin Lakes, N.J.). Each treatment condition was divided about evenly between two observers. […] Test article was administered (s.c. or p.o., and the mouse was placed immediately in the observation chamber). One-half, 1, 2, and 3 hours later, the animal was observed undisturbed for gross signs such as locomotor ataxia, tremor, hyperactivity, hypoactivity, convulsions, hindlimb splay, and Straub tail, and then removed and assessed for muscle tone (normal, rigid, flaccid), pinna reflex (presence or absence), righting reflex (intact or lost), and placing (whether or not the forepaws are extended when the mouse is placed near a surface).
Each of the tables show the number of animals responding at each dose, where N=2. […] A bolded value indicates the lowest dose at which a response was detected.

[2] = listed as mPEG6-O-hydroxycodone

T1 sequence (P35372 whole entry): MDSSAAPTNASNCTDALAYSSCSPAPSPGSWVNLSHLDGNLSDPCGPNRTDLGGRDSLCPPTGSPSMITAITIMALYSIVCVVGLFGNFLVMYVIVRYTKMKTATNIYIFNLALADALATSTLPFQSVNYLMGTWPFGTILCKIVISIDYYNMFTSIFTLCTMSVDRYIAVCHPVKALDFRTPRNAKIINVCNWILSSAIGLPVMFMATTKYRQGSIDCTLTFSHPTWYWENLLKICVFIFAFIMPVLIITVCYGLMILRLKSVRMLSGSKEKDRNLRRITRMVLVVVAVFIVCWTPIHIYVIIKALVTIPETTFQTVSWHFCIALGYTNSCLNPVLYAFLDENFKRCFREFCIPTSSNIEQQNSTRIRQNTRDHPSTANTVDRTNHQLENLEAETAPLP

## COCCOCCOCCOCCOCCOCCOC1CCC2(O)C3Cc4ccc(OC)c5c4C2(CCN3C)C1O5 (stereo not drawn) [α-6-mPEG6-O-hydroxycodone, α-6-mPEG6-O-oxycodone]
Sprague-Dawley rats; 1.0 mg/kg/injection
  progressive ratio break point: 21
Sprague-Dawley rats
  reinforcing behavior, progressive ratio: no reinforcing behavior was observed; also recorded: no reinforcing behaviour was exhibited
Sprague-Dawley rats; [2]
  reinforcing behavior, progressive ratio: showed no reinforcing properties and behaved like saline
Squirrel monkeys; 0.03 mg/kg/injection
  injection lever responses (% ILR): only food lever responses
Squirrel monkeys; 1 mg/kg/injection
  injection lever responses (% ILR): 39%
  subjects showing addictive behavior: 25%
Squirrel monkeys; 1 mg/kg/injection, listed as α-mPEG-6-O-hydroxycodone
  injection lever responses (% ILR): 38±24%
Squirrel monkeys; 3 mg/kg/injection
  subjects showing addictive behavior: 50%
[1]
  AUC: 0.21 µg·h/mL
  AUC(0-inf): 0.218 µg·h/mL
  MRT last: 47.7 min
  clearance: 4.67 ± 0.864 L/h/kg
[1]; read-out: Cmax
  Cmax: 0.445 ± 0.0836 µg/mL
[1]; read-out: T1/2(z)
  half-life: 62.2 ± 5.17 min
[1]; read-out: Vss
  Vd: 4.68 ± 0.938 L/kg
mice
  oral dose at which maximal analgesia was obtained: 100 mg/kg
Human mu opioid receptor
  Ki: 1.9 µM
Male (CD1) mice; listed as PEG-6-O-hydroxycodone
  respiratory depression compared to oxycodone: produces less respiratory depression than oxycodone
Male (CD1) mice; [2]
  respiratory depression compared to oxycodone: less respiratory depression
Male CD-1 mice; PO, 1/2 responding
  Loss Pinna, fold difference relative to parent compound: >>
  Muscle Rigidity, fold difference relative to parent compound: >100 fold
  Straub Tail, fold difference relative to parent compound: 100 fold
Male CD-1 mice; PO, 2/2 responding
  Loss Pinna, fold difference relative to parent compound: >>
  Muscle Rigidity, fold difference relative to parent compound: >30 fold
  Straub Tail, fold difference relative to parent compound: >100 fold
Male CD-1 mice; SC, 1/2 responding
  Loss Pinna, fold difference relative to parent compound: >30 fold
  Muscle Rigidity, fold difference relative to parent compound: 100 fold
  Straub Tail, fold difference relative to parent compound: 100 fold
Male CD-1 mice; SC, 2/2 responding
  Loss Pinna, fold difference relative to parent compound: 33 fold
  Muscle Rigidity, fold difference relative to parent compound: 100 fold
  Straub Tail, fold difference (reduction in CNS activity) relative to parent compound: 100 fold
Male CD-1 mice; male, CD-1, mouse, in vivo, oral
  decrease in CNS activity relative to parent opioid: 10-100 fold
Male CD-1 mice; oral doses up to 100 mg/kg
  mice showing the straub tail response: none
Male CD-1 mice; oral, 1 mg/kg
  Loss Pinna, number of animals responding (N=2): 0
  Muscle Rigidity, number of animals responding (N=2): 0
  Straub Tail Effect, number of animals responding (N=2): 0
Male CD-1 mice; oral, 3 mg/kg
  Loss Pinna, number of animals responding (N=2): 0
  Muscle Rigidity, number of animals responding (N=2): 0
  Straub Tail Effect, number of animals responding (N=2): 0
Male CD-1 mice; oral, 10 mg/kg
  Loss Pinna, number of animals responding (N=2): 0
  Muscle Rigidity, number of animals responding (N=2): 0
  Straub Tail Effect, number of animals responding (N=2): 0
Male CD-1 mice; oral, 30 mg/kg
  Loss Pinna, number of animals responding (N=2): 0
  Muscle Rigidity, number of animals responding (N=2): 0
  Straub Tail Effect, number of animals responding (N=2): 0
Male CD-1 mice; oral, 100 mg/kg
  Loss Pinna, number of animals responding (N=2): 0
  Muscle Rigidity, number of animals responding (N=2): 1
  Straub Tail Effect, number of animals responding (N=2): 0
Male CD-1 mice; oral, 300 mg/kg
  Loss Pinna, number of animals responding (N=2): 0
  Muscle Rigidity, number of animals responding (N=2): 1
  Straub Tail Effect, number of animals responding (N=2): 1
Male CD-1 mice; oral, highest dose tested
  lowest dose causing a detectable response in the straub test: 300 mg/kg
